Test results from patent US7935847B2, “Nitroxyl ion source with second order reaction nitroxyl release” (Duke University, priority 2007, dated 2011).
“Also recorded” adds a separate entry of the source.

Assays:
[1] = Isolability / rate of nitroxyl release on attempted synthesis; type: physicochemical; details: electron withdrawing group p-nitrophenyl; nitrosation of 4g with NaNO2 in glacial acetic acid
Method: It has been found herein that the rate of release is so fast, when the electron withdrawing group on the carbon acid is p-nitrophenyl, e.g., when the compound is (I) below.
The same would be true where the electron withdrawing group is nitro. Thus the compound of the invention excludes the cases where the electron withdrawing group is nitro or p-nitrophenyl.
A freshly prepared solution of aqueous 10M NaNO2 (0.59 ml, 5.9 mmol) is added dropwise with stirring to a cooled (ice/H2O bath) solution of (1.22 g, 4.9 mmol) 4g in glacial acetic acid (1.5 ml). Stirring is continued for 1 hour. The reaction mixture is diluted with the water (5 mL) and precipitates are filtered off at vacuum. The filter cake is washed with water (20 ml), hexane (20 ml) and dried under vacuum to give

[2] = system: congestive heart failure and a dilated cardiomyopathy; test: Treatment of heart failure (Working Example IV); type: in vivo, human; details: person with congestive heart failure and dilated cardiomyopathy; intravenously, blood concentration of 10 nanomolar
Method: A person with congestive heart failure and a dilated cardiomyopathy is administered compound (II) intravenously (to obtain a blood concentration of 10 nanomolar). Their ejection fraction improves, their blood pressure decreases, and […] pO2 improves on room air. Symptoms of angina also decrease.

[3] = system: ischemic reperfusion injury; test: Prevention of ischemic reperfusion injury (Working Example V); type: in vivo, human; details: person, heart attack, bypass surgery; intravenously, blood concentration of 10 nanomolar from 15 minutes before reperfusion up to 20 minutes thereafter
Method: A person presents with a heart attack. Blockage is treated with bypass surgery. The patient is give compound (II) intravenously to maintain a blood concentration of 10 nanomolar 15 minutes before reperfusion up to 20 minutes thereafter.

With `CC(=O)C(Cc1ccc([N+](=O)[O-])cc1)(N=O)C(C)=O` [Compound (I)] the “stability / isolability (rate of nitroxyl release)” value [1] was “cannot be isolated; also recorded: couldn't be isolated”.

In the case of `CC(=O)C(Cc1ccc(Br)cc1)(N=O)C(C)=O` [Compound (II), 3-(4-bromobenzyl)-3-nitroso-2,4-pentanedione], the blood pressure [2] is reported as “decreases”, the ejection fraction [2] is reported as “improves” and the “pO2 on room air” value [2] is reported as “improves”. For the same compound, the symptoms of angina [2] was “decrease” and the ischemic reperfusion injury [3] was “does not occur”.
